Experimental data reported in US20140249139A1, “Quinazoline Derivatives” (NOVARTIS AG, priority 2011, published 2014).

Legend:
[1] = target: T1, PI3K alpha (Homo sapiens, UniProt P42336); experiment: Enzymatic PI3K alpha isoform inhibition (lipid kinase activity, Kinase-Glo); assay type: biochemical; conditions: enzymatic assay
T1 construct: for the p110-a subunit (with a deletion of the first 20 amino acids) are generated; His tag (C); made in house; host or cells: baculovirus BV1075; Tn5 (Trichoplusia ni) or TiniPro insect cells
T1 sequence (P42336 with tags, fused parts or gaps limits assumed, species assumed): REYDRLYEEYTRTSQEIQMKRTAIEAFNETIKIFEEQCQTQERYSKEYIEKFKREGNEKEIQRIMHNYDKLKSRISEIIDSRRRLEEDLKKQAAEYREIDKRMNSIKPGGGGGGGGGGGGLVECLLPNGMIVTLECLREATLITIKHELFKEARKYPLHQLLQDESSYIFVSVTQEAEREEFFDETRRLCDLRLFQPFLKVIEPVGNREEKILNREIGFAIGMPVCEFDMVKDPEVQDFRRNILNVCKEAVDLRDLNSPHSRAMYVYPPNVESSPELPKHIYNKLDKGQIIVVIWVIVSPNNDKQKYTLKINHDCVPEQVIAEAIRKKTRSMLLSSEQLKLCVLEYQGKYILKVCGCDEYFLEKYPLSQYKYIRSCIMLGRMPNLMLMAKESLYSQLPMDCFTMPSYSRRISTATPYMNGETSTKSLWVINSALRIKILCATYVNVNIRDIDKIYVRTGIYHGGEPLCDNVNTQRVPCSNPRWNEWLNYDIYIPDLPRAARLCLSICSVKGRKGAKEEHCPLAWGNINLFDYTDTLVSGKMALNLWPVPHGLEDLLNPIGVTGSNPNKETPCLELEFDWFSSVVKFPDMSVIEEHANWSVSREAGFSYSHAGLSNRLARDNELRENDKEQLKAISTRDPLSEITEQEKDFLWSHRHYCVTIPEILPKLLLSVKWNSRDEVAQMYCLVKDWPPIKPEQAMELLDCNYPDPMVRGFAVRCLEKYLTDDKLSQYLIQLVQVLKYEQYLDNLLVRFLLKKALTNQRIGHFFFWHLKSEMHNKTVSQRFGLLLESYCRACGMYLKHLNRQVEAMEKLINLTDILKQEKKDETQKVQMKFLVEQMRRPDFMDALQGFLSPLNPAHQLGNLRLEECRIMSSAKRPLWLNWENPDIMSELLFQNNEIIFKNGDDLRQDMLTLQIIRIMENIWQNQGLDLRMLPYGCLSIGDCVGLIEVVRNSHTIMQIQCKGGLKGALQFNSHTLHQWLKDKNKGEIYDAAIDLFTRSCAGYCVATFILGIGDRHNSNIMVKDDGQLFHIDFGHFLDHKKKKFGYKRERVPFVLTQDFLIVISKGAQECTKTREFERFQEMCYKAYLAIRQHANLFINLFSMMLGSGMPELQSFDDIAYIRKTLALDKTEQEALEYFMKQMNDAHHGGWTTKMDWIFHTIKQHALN
Protocol: (§1) The components of the assay are added per well as follows:
(§2) IC50 is determined by a four parameter curve fitting routine that comes along with “excel fit”.
(§3) Yet alternatively, for an ATP depletion assay, compounds of the formula I to be tested are dissolved in DMSO and directly distributed into a white 384-well plate at 0.5 μl per well. To start the reaction, 10 μl of 10 nM PI3 kinase and 5 μg/ml 1-alpha-phosphatidylinositol (PI) are added into each well followed by 10 μl of 2 μM ATP. The reaction is performed until approx 50% of the ATP is depleted, and then stopped by the addition of 20 μl of Kinase-Glo solution (Promega Corp., Madison, Wis., USA). The stopped reaction is incubated for 5 minutes and the remaining ATP is then detected via luminescence. IC50 values are then determined.

[2] = target: T2, PI3K delta (Homo sapiens, UniProt O00329); experiment: Enzymatic PI3K delta isoform inhibition (lipid kinase activity, Kinase-Glo); assay type: biochemical; conditions: enzymatic assay
T2 construct: for the full-length p110-d subunit are generated and fused by overlapping PCR; His tag (C); made in house; host or cells: baculovirus BV1060; Tn5 (Trichoplusia ni) or TiniPro insect cells
T2 sequence (O00329 with tags, fused parts or gaps limits assumed, species assumed): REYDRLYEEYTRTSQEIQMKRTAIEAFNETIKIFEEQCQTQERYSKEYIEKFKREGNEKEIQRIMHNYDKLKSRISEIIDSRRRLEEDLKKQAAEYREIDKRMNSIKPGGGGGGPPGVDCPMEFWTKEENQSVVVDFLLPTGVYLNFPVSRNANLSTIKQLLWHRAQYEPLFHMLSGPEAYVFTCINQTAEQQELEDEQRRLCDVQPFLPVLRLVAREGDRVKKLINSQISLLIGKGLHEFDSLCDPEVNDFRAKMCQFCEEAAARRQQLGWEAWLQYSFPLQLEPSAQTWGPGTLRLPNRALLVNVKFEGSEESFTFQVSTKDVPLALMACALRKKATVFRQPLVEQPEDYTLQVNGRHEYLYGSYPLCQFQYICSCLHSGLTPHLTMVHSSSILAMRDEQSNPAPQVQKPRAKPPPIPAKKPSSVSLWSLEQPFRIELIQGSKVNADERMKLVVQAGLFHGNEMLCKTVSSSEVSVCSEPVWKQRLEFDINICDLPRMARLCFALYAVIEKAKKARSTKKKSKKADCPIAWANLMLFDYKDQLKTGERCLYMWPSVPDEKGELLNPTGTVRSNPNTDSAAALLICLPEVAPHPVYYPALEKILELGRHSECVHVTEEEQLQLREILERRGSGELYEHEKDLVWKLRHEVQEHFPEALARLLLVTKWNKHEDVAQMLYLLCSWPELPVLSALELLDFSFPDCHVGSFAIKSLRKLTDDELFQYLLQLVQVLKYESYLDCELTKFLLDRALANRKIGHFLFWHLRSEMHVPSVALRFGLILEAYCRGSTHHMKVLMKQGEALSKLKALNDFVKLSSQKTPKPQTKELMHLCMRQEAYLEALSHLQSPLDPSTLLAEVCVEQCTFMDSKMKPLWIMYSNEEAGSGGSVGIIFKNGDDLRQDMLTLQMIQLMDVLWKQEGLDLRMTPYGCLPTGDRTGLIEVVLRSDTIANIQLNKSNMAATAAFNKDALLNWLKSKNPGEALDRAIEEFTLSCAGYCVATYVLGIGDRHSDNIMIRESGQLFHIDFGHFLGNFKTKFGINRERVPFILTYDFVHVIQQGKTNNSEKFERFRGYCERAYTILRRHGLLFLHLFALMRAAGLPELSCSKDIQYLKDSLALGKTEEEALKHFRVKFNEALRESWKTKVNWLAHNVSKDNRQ
Protocol: as §1, §2, §3

SMILES | IC50 [1] [nM] | IC50 [2] [nM]
COc1ccc(-c2ccc3ncnc(-c4cccc(C(=O)N5CCNC[C@H]5C)c4)c3c2)cn1 [Example 97, {3-[6-(6-Methoxy-pyridin-3-yl)-quinazolin-4-yl]-phenyl}-((R)-2-methyl-piperazin-1-yl)-methanone] | 463 | 23
COc1ncc(-c2ccc3ncnc(-c4cc(C(=O)N5CCN(C(C)=O)CC5)cc(C(F)(F)F)c4)c3c2)cn1 [Example 104, 1-(4-{3-[6-(2-Methoxy-pyrimidin-5-yl)-quinazolin-4-yl]-5-trifluoromethyl-benzoyl}-piperazin-1-yl)-ethanone] | 3290 | 38
COc1ccc(-c2ccc3ncnc(-c4cc(Cl)cc(C(=O)N5CCN(C(C)=O)CC5)c4)c3c2)cn1 [Example 107, 1-(4-{3-Chloro-5-[6-(6-methoxy-pyridin-3-yl)-quinazolin-4-yl]-benzoyl}-piperazin-1-yl)-ethanone] | 716 | 5
COc1ncc(-c2ccc3ncnc(-c4cncc(C(=O)N5CCN(C)C(C)(C)C5)c4)c3c2)cc1C [Example 72] | 69.5 | 3
COc1ccc(-c2ccc3ncnc(-c4cncc(C(=O)N5C[C@@H]6C[C@H]5CN6C)c4)c3c2)cn1 [Example 77, {5-[6-(6-Methoxy-pyridin-3-yl)-quinazolin-4-yl]-pyridin-3-yl}-((1S,4S)-5-methyl-2,5-diaza-bicyclo[2.2.1]hept-2-yl)-methanone] | 573 | 14
COc1ncc(-c2ccc3ncnc(-c4cncc(C(=O)N5CCOC(C)(C)C5)c4)c3c2)cc1F [Example 63] | 505 | 6
COc1ncc(-c2ccc3ncnc(-c4cncc(C(=O)N5CCN(C)C(C)(C)C5)c4)c3c2)cc1C(F)(F)F [Example 74] | 150 | 5
COc1ncc(-c2ccc3ncnc(-c4ccnc(C(=O)N5CCN(C(C)=O)CC5)c4)c3c2)cc1C(F)(F)F [Example 114, 1-(4-{4-[6-(6-Methoxy-5-trifluoromethyl-pyridin-3-yl)-quinazolin-4-yl]-pyridine-2-carbonyl}-piperazin-1-yl)-ethanone] | 71 | 3
COc1ccc(-c2ccc3ncnc(-c4cccc(C(=O)N5CCCN(C)CC5)c4)c3c2)cn1 [Example 92, {3-[6-(6-Methoxy-pyridin-3-yl)-quinazolin-4-yl]-phenyl}-(4-methyl-[1,4]diazepan-1-yl)-methanone] | 196 | 3.75
COc1ncc(-c2ccc3ncnc(-c4cncc(C(=O)N5CCN(C(C)=O)CC5)c4)c3c2)cc1C(F)(F)F [Example 54] | 69 | 3
CN1CCN(C(=O)c2cccc(-c3ncnc4ccc(-c5ccc(OC(F)F)nc5)cc34)c2)CC1 [Example 13] | 1330 | 34
CC(=O)N1CCN(C(=O)c2cncc(-c3ncnc4ccc(-c5cncc(C(F)(F)F)c5)cc34)c2)CC1 [Example 50, 1-(4-{5-[6-(5-Trifluoromethyl-pyridin-3-yl)-quinazolin-4-yl]-pyridine-3-carbonyl}-piperazin-1-yl)-ethanone] | 319 | 10.5
CN1CCN(C(=O)c2cccc(-c3ncnc4ccc(-c5ccc(S(N)(=O)=O)c(C(F)(F)F)c5)cc34)c2)CC1 [Example 46] | 5300 | 23.5
COc1ccc(-c2ccc3ncnc(-c4ccc(C)c(C(=O)N5CCN(C(C)=O)CC5)c4)c3c2)cn1 [Example 100, 1-(4-{5-[6-(6-Methoxy-pyridin-3-yl)-quinazolin-4-yl]-2-methyl-benzoyl}-piperazin-1-yl)-ethanone] | 188 | 5
COc1ccc(-c2ccc3ncnc(-c4cncc(C(=O)N5CCN(C)CC5)c4)c3c2)cc1C(F)(F)F [Example 58] | 646 | 5.5
CCC(=O)N1CCN(C(=O)c2cccc(-c3ncnc4ccc(-c5cnc(OC)c(C#N)c5)cc34)c2)CC1 [Example 96, 2-Methoxy-5-{4-[3-(4-propionyl-piperazine-1-carbonyl)-phenyl]-quinazolin-6-yl}-nicotinonitrile] | 316 | 6
COc1ccc(-c2ccc3ncnc(-c4cncc(C(=O)N5C[C@@H]6C[C@H]5CN6)c4)c3c2)cc1C(F)(F)F [Example 85, (1S,4S)-2,5-Diaza-bicyclo[2.2.1]hept-2-yl-{5-[6-(4-methoxy-3-trifluoromethyl-phenyl)-quinazolin-4-yl]-pyridin-3-yl}-methanone] | 793 | 7
CCN(CC)S(=O)(=O)c1cc(-c2ccc3ncnc(-c4cccc(C(=O)N5CCN(C)CC5)c4)c3c2)ccc1OC [Example 23] | 931 | 12.5
COc1ccc(-c2ccc3ncnc(-c4cccc(C(=O)N5CCNC[C@@H]5C)c4)c3c2)cn1 [Example 98, {3-[6-(6-Methoxy-pyridin-3-yl)-quinazolin-4-yl]-phenyl}-((S)-2-methyl-piperazin-1-yl)-methanone] | 102 | 3.5
COc1ccc(-c2ccc3ncnc(-c4cccc(C(=O)N5CCOC(C)(C)C5)c4)c3c2)cn1 [Example 95, (2,2-Dimethyl-morpholin-4-yl)-{3-[6-(6-methoxy-pyridin-3-yl)-quinazolin-4-yl]-phenyl}-methanone] | 281 | 9

SMILES | IC50 [1] [nM] | IC50 [2] [nM]
COc1ncc(-c2ccc3ncnc(-c4cncc(C(=O)N5CCOCC5)c4)c3c2)cc1C(F)(F)F [Example 68] | 97 | 3
CN1CCN(C(=O)c2cccc(-c3ncnc4ccc(-c5ccc(N)nc5)cc34)c2)CC1 [Example 25] | 184 | 7
COc1ncc(-c2ccc3ncnc(-c4cccc(C(=O)N5CCN(C(C)=O)CC5)c4)c3c2)cc1F [Example 3] | 62 | < 3
CN1CCN(C(=O)c2cccc(-c3ncnc4ccc(-c5ccc(N6CCCC6)nc5)cc34)c2)CC1 [Example 15] | 1230 | 17
COc1ccc(-c2ccc3ncnc(-c4cccc(C(=O)N5CCS(=O)(=O)CC5)c4)c3c2)cn1 [Example 93, (1,1-Dioxo-1lambda*6*-thiomorpholin-4-yl)-{3-[6-(6-methoxy-pyridin-3-yl)-quinazolin-4-yl]-phenyl}-methanone] | 120 | < 3
COc1ncc(-c2ccc3ncnc(-c4cc(C)cc(C(=O)N5CCN(C(C)=O)CC5)c4)c3c2)cc1C#N [Example 109, 5-{4-[3-(4-Acetyl-piperazine-1-carbonyl)-5-methyl-phenyl]-quinazolin-6-yl}-2-methoxy-nicotinonitrile] | 435 | 14
COc1ccc(-c2ccc3ncnc(-c4cncc(C(=O)N5CCOC(C)(C)C5)c4)c3c2)cc1C(F)(F)F [Example 66] | 763 | 9.5
COc1ncc(-c2ccc3ncnc(-c4cccc(C(=O)N5CCN(C)C(C)(C)C5)c4)c3c2)cn1 [Example 26] | 614 | 17.8
COc1ncc(-c2ccc3ncnc(-c4cncc(C(=O)N5CCOCC5)c4)c3c2)cn1 [Example 70] | 1030 | 30
COc1ccc(-c2ccc3ncnc(-c4cncc(C(=O)N5CCN(C)C(C)(C)C5)c4)c3c2)cn1 [Example 78, {5-[6-(6-Methoxy-pyridin-3-yl)-quinazolin-4-yl]-pyridin-3-yl}-(3,3,4-trimethyl-piperazin-1-yl)-methanone] | 123 | 4.5
CN1CCN(C(=O)c2cccc(-c3ncnc4ccc(-c5cc(NS(C)(=O)=O)cc(C(F)(F)F)c5)cc34)c2)CC1 [Example 47] | > 9100 | 27
COc1ccc(-c2ccc3ncnc(-c4cccc(C(=O)N5CCN(C)CC5)c4)c3c2)cc1C(F)(F)F [Example 20] | 2480 | 24
CCOc1ncc(-c2ccc3ncnc(-c4cccc(C(=O)N5CCN(C)CC5)c4)c3c2)cc1C(F)(F)F [Example 42, {3-[6-(6-Ethoxy-5-trifluoromethyl-pyridin-3-yl)-quinazolin-4-yl]-phenyl}-(4-methyl-piperazin-1-yl)-methanone] | 152 | 6
COc1ncc(-c2ccc3ncnc(-c4cccc(C(=O)N5CCOC(C)(C)C5)c4)c3c2)cn1 [Example 33] | 639 | 12
COc1ccc(-c2ccc3ncnc(-c4cncc(C(=O)N5CCOCC5)c4)c3c2)cc1C(F)(F)F [Example 82, {5-[6-(4-Methoxy-3-trifluoromethyl-phenyl)-quinazolin-4-yl]-pyridin-3-yl}-morpholin-4-yl-methanone] | 1330 | 21.5
COc1ncc(-c2ccc3ncnc(-c4cncc(C(=O)N5CCN(C)CC5)c4)c3c2)cn1 [Example 59] | 1710 | 31.5
COc1ncc(-c2ccc3ncnc(-c4cccc(C(=O)N5CCOC(C)(C)C5)c4)c3c2)cc1C#N [Example 31] | 631 | 6
COc1ccc(-c2ccc3ncnc(-c4cccc(C(=O)N5CCN(C)CC5)c4)c3c2)cc1C(=O)N(C)C [Example 49, 2-Methoxy-N,N-dimethyl-5-{4-[3-(4-methyl-piperazine-1-carbonyl)-phenyl]-quinazolin-6-yl}-benzamide] | 8950 | 35.5
COc1ncc(-c2ccc3ncnc(-c4cncc(C(=O)N5CCOC(C)(C)C5)c4)c3c2)cc1C#N [Example 62] | 1150 | 7
